Where two headings read alike, the source gives them in different places. Where a SMILES comes first, the peptide text is derived from it. The star is where a group is joined. Cbz = O=C(OCc1ccccc1)*
Tests used:
[1] = system: cyclin-luciferase (cyc-luc) turnover, activated APC/C; assay: cyc-luc turnover in mitotic Xenopus extracts (pre-treated with non-degradable cyclin B); assay type: biochemical
Experimental: (§1) FIG. 1. Functional classification of inhibitors. Compounds that scored in the initial screen were reacquired as dry powders and retested in Xenopus extracts in 4 assays at 200 μM concentration (32) as described (6). […] (A) Compounds and cyclin-luciferase were added to interphase extracts, which were then induced to enter mitosis by addition of non-degradable cyclin B. Percent inhibition of cyc-luc turnover by each compound is coded according to the grayscale shown at the bottom of the figure; specific values are available in Table 1. (B) Extracts were pre-treated with non-degradable cyclin B to allow entry into mitosis prior to addition of test compound and reporter protein. (C) Interphase extracts were treated by addition of recombinant Cdh1 to activate cyc-luc turnover. (D) Interphase extracts were treated with recombinant axin to induce turnover of β-catenin-luciferase.
(§2) The “Cmpd” column corresponds to the numbers used in FIG. 1; “Class” refers to the class of inhibitor described in FIG. 1 and the text. Columns A-D show percent inhibition in the four assays described in FIG. 1. (A) Interphase extracts (B) Mitotic extracts (C) Interphase extracts stimulated with Cdh1 (D) Degradation of a β-catenin reporter protein in interphase extracts stimulated with recombinant axin. […] “ID#” refers to the identification number of the inhibitor obtained from the NCI (prefaced by NSC) or Chembridge (prefaced by C).
(§3) Dry compounds were redissolved at 20 mM concentration in DMSO, or a 50:50 water:DMSO mixture in certain cases. These compounds were then diluted ten-fold in XB and mixed thoroughly. For the assay in FIG. 1A, chilled interphase extract was mixed with cyclin BΔ90 (10 μg/ml) and cyc-luc (0.1 μg/ml) in bulk and then 27 μl of extract was pipetted to each well of a chilled 384-well plate. Three microliters of each compound (diluted in XB) was then added to each well, and then compounds mixed thoroughly. Plates were warmed to room temperature. After 70 minutes, 5 μl aliquots were transferred to another plate, and then 30 μl of luciferin reagent was added to each well and luminescence measured. Percent inhibition was calculated as described above. The reported values represent the average of three independent measurments. For the assay in FIG. 1B, interphase extracts were treated with 10 μg/cyclin B 90 for 50 minutes at room temperature and then chilled on ice. Cyc-luc was then added, and then 27 μl of extract was pipetted to each well of a chilled 384-well plate. Three microliters of each compound (diluted in XB) was then added to each well, and then compounds mixed thoroughly. Plates were warmed to room temperature. After 60 minutes, 5 μl aliquots were transferred to another plate, and then 30 μl of luciferin reagent was added to each well and luminescence measured. For the assay in FIG. 1C, recombinant Cdh1 (0.1 μg/ml) and cyc-luc were added to chilled interphase extracts. Extracts were then pipetted and compounds added as above. Plates were warmed to room temperature and incubated for three hours, following which luminescence was measured as above. For the assay in FIG. 1D, chilled interphase extracts received recombinant axin and beta-catenin-luciferase reporter as described (8). Extracts were aliquoted to chilled plates and compounds distributed as described above. Plates were warmed to room temperature, incubated for three hours, and luminescence measured.

[2] = system: β-catenin-luciferase turnover (substrate of the SCFβ-TRCP ubiquitin ligase); assay: β-catenin-luciferase turnover in interphase Xenopus extracts stimulated with recombinant axin; assay type: biochemical
Experimental: as §1, §2, §3

[3] = system: Cdh1-stimulated cyc-luc proteolysis (APC/C); assay: cyc-luc turnover in interphase Xenopus extracts stimulated with recombinant Cdh1; assay type: biochemical
Experimental: as §1, §2, §3

[4] = system: cyclin-luciferase (cyc-luc) turnover, APC/C activation; assay: cyc-luc turnover in interphase Xenopus extracts induced to enter mitosis by non-degradable cyclin B; assay type: biochemical
Experimental: as §1, §2
Extracts were rapidly thawed and diluted to a final concentration of 75% in extract buffer (XB) just prior to assay (XB; 100 mM KCl, 0.1 mM CaCl2, 1 mM MgCl2, 10 mM potassium HEPES, pH 7.7, 50 mM sucrose). Extracts were kept on ice and supplemented with 1 mg/ml bovine ubiquitin (Sigma) unless otherwise stated. Cyc-luc expressed in reticulocyte lysate was diluted 1/200 for most assays. High-throughput screening utilized the bacterially expressed and purified cyclin-luc fusion protein, which was added to extracts at a final concentration of 0.1 μg/ml. To induce entrance into mitosis, cyclin BΔ90 protein was added to a final concentration of 10 μg/ml. For the dose response analysis, inhibitors were purchased from Calbiochem (San Diego, Calif.) and dissolved in DMSO as 10 mM stocks. Cyclin-luciferase and cyclin BΔ90 were mixed with interphase extract and placed on ice. Inhibitors were then added to extracts to yield a final DMSO concentration of 1%. 10 μl aliquots of extract were distributed into 384-well white Cliniplates (Labsystems), and cell cycle progression was initiated by warming the samples to room temperature. After 60 minutes, 30 μl of luciferin reagent (20 mM tricine pH 7.8, 470 μM D-Luciferin [Molecular Probes]), 270 μM Coenzyme A, 0.1 mM EDTA, 33 mM DTT, and 530 μM ATP) was added using a multidrop dispenser (Labsystems). Luminescence was measured on an Analyst plate reader (LJL Biosystems). The values for 3 replicates were averaged. For the dose response analysis, percent inhibition was calculated as 100*(T−M)/(I−M) where T equals the test value for the inhibitor, M equals the value in a mitotic extract lacking inhibitor, and I equals the value in an interphase extract. For certain experiments, methylated ubiquitin was added to interphase extracts at a concentration of 1 mg/ml in the presence or absence of added unmodified ubiquitin (1 mg/ml) used as competitor. Cyclin-luciferase and cyclin BΔ90 were then added. After 60 minutes, the reactions were stopped and analyzed as described above.
Dry compounds were redissolved at 20 mM concentration in DMSO, or a 50:50 water:DMSO mixture in certain cases. These compounds were then diluted ten-fold in XB and mixed thoroughly. For the assay in FIG. 1A, chilled interphase extract was mixed with cyclin BΔ90 (10 μg/ml) and cyc-luc (0.1 μg/ml) in bulk and then 27 μl of extract was pipetted to each well of a chilled 384-well plate.

[5] = system: HEK-293 cells stably expressing GFP-AR; assay: Protac-induced GFP-AR degradation in microinjected HEK-293 cells; assay type: cell-based; conditions: microinjection, 100 nM
Experimental: The results are representative of experiments performed on 3 separate days.
The effect of ubistatin A on protein degradation within intact mammalian cells was also evaluated (FIG. 4). Since the negative charge of the molecule was predicted to preclude efficient entry into the cell, compound was introduced by microinjection.
HEK-293 cells stably transfected with a plasmid that expresses GFP-AR were microinjected with 0.2 pl (5-10% of cell volume) of a 200 mM KCl solution containing 10 μM Protac and 50 mg/ml rhodamine dextran (MW 10,000 Da).

[6] = 200 μM compound, extracts in mitosis before addition of compound
[7] = 200 μM compound, negative values reflect stimulation of proteolysis
[8] = 200 μM compound, added to interphase extracts then induced to enter mitosis, average of three measurements

Structure (SMILES) | percent inhibition of cyc-luc turnover, (B) Mitotic extracts [1, 6] [%] | percent inhibition, (D) Degradation of a β-catenin reporter protein in interphase extracts stimulated with recombinant axin ([2]; 200 μM compound) [%] | percent inhibition of cyc-luc turnover, (C) Interphase extracts stimulated with Cdh1 [3, 7] [%] | percent inhibition of cyc-luc turnover, (A) Interphase extracts [4, 8] [%] | also measured
Nc1nc2c(c(=O)[nH]1)c1c(N)ncnc1n2C1OC(CO)C(O)C1O (stereo not shown) [Compound 57] | 4 | 60 | 0 | 100 | –
O=C(NNC(=S)NC(=O)C12CC3CC(CC(C3)C1)C2)c1ccncc1 [Compound 13] | 0 | 0 | −9 | 75 | –
O=C1c2ccccc2C2=NNC3=C(S(=O)(=O)O)C=CC1C23 (stereo not shown) [Compound 10] | 0 | 21 | −4 | 33 | –
O=c1[nH]c(O)nc2cc3[nH]ncc3cc12 [Compound 62] | 0 | 0 | −8 | 84 | –
Nc1ncnc(Nc2ccc(S(N)(=O)=O)cc2)n1 [Compound 25] | 3 | 0 | −6 | 66 | –
NC(=O)c1ncn(C2OC(CO)C(O)C2O)c1C(N)=O (stereo not shown) [Compound 82] | 0 | 0 | 0 | 100 | –
CC[C@H](CO)Nc1nc(NCc2ccccc2)c2ncn(C(C)C)c2n1 [roscovitine, reference compound] | – | – | – | – | effect on cyc-luc proteolysis in mitotic extracts (in words) [1]: ineffective; effect on loss of cyc-luc activity / activation of latent APC/C activity (in words) [4]: blocked
CC(=O)Nc1ncnc2[nH]ncc12 [Compound 54] | 3 | 0 | −6 | 54 | –
O=c1[nH]cnc2c1ccc1[nH]ncc12 [Compound 67] | 3 | 3 | −8 | 53 | –
CC[C@H](C)[C@H](NC(=O)[C@H]([C@@H](C)CC)N(C)C(C)=O)C(=O)N[C@H](C(=O)N[C@@H](CC(C)C)C(=O)[C@@]1(C)CO1)[C@@H](C)O [epoxomicin] | – | – | – | – | block of Protac-X induced loss of GFP-AR [5]: completely blocked
Nc1ncnc2c1c(Cl)cn2[C@@H]1O[C@H](CO)[C@@H](O)[C@H]1O [Compound 39] | 9 | 67 | −7 | 100 | –
O[Si](c1ccccc1)(c1ccccc1)c1ccccc1.O[Si](c1ccccc1)(c1ccccc1)c1ccccc1.O[Si](c1ccccc1)(c1ccccc1)c1ccccc1.[O]=[V] [Compound 61] | 8 | 2 | −8 | 77 | –
O/N=C(/C=N/O)SCCSC(/C=N/O)=N/O [Compound 77] | 4 | 0 | −12 | 100 | –
N#Cc1c(NN)n(C2OC(CO)C(O)C2O)c2ncnc(N)c12 (stereo not shown) [Compound 51] | 0 | 30 | 0 | 100 | –
CC(C)C[C@@H](C=O)NC(=O)[C@H](CC(C)C)NC(=O)[C@H](CC(C)C)NC(=O)OCc1ccccc1 [MG132, reference compound] (Cbz-Leu-Leu-Leu-aldehyde) | – | – | – | – | effect on loss of cyc-luc activity / activation of latent APC/C activity (in words) ([4]; assay validation, inhibitor added to interphase extract before mitotic entry): partially inhibited
ON=c1[nH]cnc2[nH]cc(Br)c12 [Compound 40] | 0 | 3 | −6 | 42 | –
O=S(=O)(O)c1ccc2c(/N=N/c3ccccc3)c(O)ccc2c1 [Compound 18] | 4 | 0 | −7 | 73 | –
Nc1ncnc2c1ncn2C1OC2COP(=O)(O)OC2C1O (stereo not shown) [Compound 34] | – | – | – | – | percent inhibition of cyc-luc turnover, (B) Mitotic extracts ([1]; 200 µM): 0%; percent inhibition, (D) Degradation of a β-catenin reporter protein in interphase extracts stimulated with recombinant axin ([2]; 200 µM): 6%; percent inhibition of cyc-luc turnover, (C) Interphase extracts stimulated with Cdh1 ([3]; 200 µM): −8%; percent inhibition of cyc-luc turnover, (A) Interphase extracts ([4]; 200 µM): 100%
